Measured values: patent US20120094939A1, “ANTI-VIRAL COMPOUNDS, COMPOSITIONS AND METHODS” (priority 2007, published 2012)

Tested on: Huh7/Rep-Feo HCV replicon
Test: Optimization of Huh7/Rep-Feo cells for 96-/384-well plates with PEG-IFN as positive control
Assay type: cell-based, Hepatitis C virus (strain HCV—N, genotype 1b)
Conditions: 96-well plates; measurements at 24, 48, 72 hours
Description: Optimization of Huh-7/Rep-Feo Cells for the 384-Well Plate Format. The Huh7/Rep-Feo cells were first optimized for the 96-well plate format (FIG. 9). […] Cells were seeded at densities of 5000 and 10,000 cells/well in 100_L of medium in 96-well plates. The cells were allowed to attach overnight (approximately 24 hours) before addition of PEG-IFN at various concentrations (day 0). The plates were then incubated further, and measurements were taken at 24, 48, and 72 hours. At each time point, the plates were equilibrated at room temperature, an equal volume of Bright-Glo reagent (Promega, Madison, Wis.) was added, and the plates were read in a LumiCount (Packard BioScience Company, Downers Grove, Ill.) luminometer. […] Results were expressed as the mean of three replicate wells. […]
Optimization of Huh-7/Rep-Feo cells for the 384-well plate format: Cells were propagated in Dulbecco's Modified Eagle's medium (DMEM) containing 10% fetal bovine serum (FBS) supplemented with 1% penicillin-streptomycin, and 500 μg of Geneticin (Invitrogen Corp., Carlsbad, Calif.)/ml. […] At each time point, the plates were equilibrated at room temperature, an equal volume of Bright-Glo reagent (Promega, Madison, Wis.) was added, and the plates were read in a LumiCount™ (Packard BioScience Company, Downers Grove, Ill.) luminometer. […] Results were expressed as the mean of three replicate wells. […]

Question: Peginterferon-alfa-2b [PEG-IFN] was tested. Which “antiviral activity over time (in words)” value did it give?
Answer: progressively increased over time
